The values that follow come from patent publication US9867879B2 (Vanderbilt University, priority 2015, dated 2018).

Read-outs that look alike come from different tables or passages of the source.

For experiment [1], the system named is wild type S. aureus strain Newman. Briefly: Growth inhibition IC50, Newman aerobic. The class given is cell-based. To be noted: Staphylococcus aureus, NEWMAN, 95% confidence interval, >60 μM considered nontoxic. The procedure: (§1) Cultures of wild type S. aureus strain Newman and ΔmenB^14 were grown in aeration tubes aerobically at 37° C. with shaking for 15-18 h. Anaerobic cultures were prepared by growing bacteria at 37° C. without shaking in an anaerobic chamber for 15-18 h. Bacteria from each condition were subcultured 1:100 into TSB containing various concentrations of compound in a 96 well plate. Aerobic wild type and ΔmenB plates are incubated aerobically at 37° C. with shaking while anaerobic plates were grown in an anaerobic chamber (Coy) at 37° C. without shaking. The absorbance at 600 nm (OD600) was determined after 9 h of growth and the fraction of growth at each compound concentration is determined by dividing the OD600 by the vehicle control (DMSO) value. IC50s were calculated using Graphpad Prism 6 and errors are reported as 95% confidence intervals.
(§2) Wild type S. aureus strain Newman was grown in an anaerobic chamber in appropriate media to ensure exclusion of terminal electron acceptors sufficient to force the bacteria to ferment. […] The arbitrary cut off point for toxicity of 60 μM was chosen as many of the compounds were not entirely soluble above this concentration.

Experiment [2] has the same test system. Nature of the experiment: Growth inhibition IC50, Newman anaerobic (fermenting). The class given is cell-based. Particulars: for IC50: Staphylococcus aureus, NEWMAN, 9 h of growth, anaerobic chamber, 95% confidence interval, >60 μM considered nontoxic; for toxicity to fermenting / anaerobic S. aureus (in words): anaerobic Newman and ΔmenB, from IC50 data. The method, then: as §1, §2

A further experiment concerns ΔmenB. Nature of the experiment: Growth inhibition IC50, ΔmenB. Particulars: Staphylococcus aureus, 9 h, read-out: IC50 ΔmenB. The class given is cell-based, S. aureus. The procedure: as §1, with “intervals. […]” for “intervals.”
The subject of the next experiment is HssRS. Briefly: microbe, parasite or virus in culture. The class given is cell-based, S. aureus. To be noted: for HssRS activation in single point screen: 50 μM, fraction of activation relative to 1, cut-off 0.05, in words; for EC50: Staphylococcus aureus, 6 h; for Efficacy: percent activation of HssRS compared to 1 at 50 μM, error one standard deviation. The procedure: Previously reported strains were used.^11 Cultures grown overnight in 5 ml TSB with 10 μg mL^−1 chloramphenicol for 15-18 h were subcultured 1:100 into 0.5 mL TSB with 10 μg mL^−1 chloramphenicol containing compound and incubated at 37° C., 180 rpm for 6 h. Cells were washed and lysed as previously described. 200 μL of a 200 μM catechol solution in 100 mM potassium phosphate (pH 8.0) was added to 20 μL of lysate and the oxidation of catechol was followed by monitoring absorbance at 375 nm for 10 min. Samples were normalized to protein concentration as determined by BCA assay (Pierce).
The above XylE procedure was followed using different concentrations of compound. The data were then entered into Graphpad Prism 6 and fit to a curve to determine EC50 values.
HssRS activation. The library was screened for activation of the heme stress response as an indicator for activation of heme biosynthesis in S. aureus. We began by screening at the single point concentration of 50 μM using a previously described reporter assay (FIG. 4).^11 In this assay, Newman harboring a plasmid with the hrt promoter fused to xylE, a gene encoding a catechol oxidase, is treated with compound for six hours, the bacteria lysed, and the oxidation of catechol by XylE quantified by spectrophotometry. An increase in absorbance due to the oxidation of catechol indicates elevated levels of xylE transcription and hrt promoter activity. Results are expressed as the fraction of activation of HssRS by the compound compared to 1. […] With reference to FIG. 8, activation of HssRS by 3a and 3b at 50 μM. Activity is presented as the fraction of activation by the indicated derivative relative to 1 at 50 μM.

Where [3] appears, read: 9 h, read-out: IC50 Newman aerobic, 9 h of growth, aerobic.

By IC50 is commonly meant the concentration at which inhibition is half-maximal.

Take `CC(C)(C)c1cc(-c2ccccc2O)n[nH]1` [Compound 2m, 2-(5-(tert-butyl)-1H-pyrazol-3-yl)phenol]: the IC50 (in experiment [1] (setting [3]); in experiment [2]; with ΔmenB) was more than 60 µM in each case. For the same compound, the “toxicity to fermenting / anaerobic S. aureus (in words)” value in experiment [2] is “nontoxic under all conditions”.
With `Cn1nc(-c2ccc3ccccc3c2O)cc1-c1ccco1` [Compound 4b, 2-(5-(furan-2-yl)-1-methyl-1H-pyrazol-3-yl)naphthalen-1-ol], the “HssRS activation in single point screen” value in the experiment on HssRS was “complete loss of activity”. Besides, the IC50 in experiment [1] (setting [3]) is more than 60 µM; in experiment [2], 4.27 µM; in the experiment on ΔmenB, 3.3 µM.
Consider `Oc1ccccc1-c1cc(-c2ccccn2)[nH]n1` [Compound 2g], for which the IC50 (in experiment [1] (setting [3]); in experiment [2]; in the experiment with ΔmenB) was more than 60 µM each time.
Turning to `O=C(Nc1ccccc1-c1cc(-c2ccco2)[nH]n1)c1ccco1` [Compound 1l, N-(2-(5-furan-2-yl)-1H-pyrazol-3-yl)phenylfuran-2-carboxamide], the results for the IC50 (in experiment [1] (setting [3]); in experiment [2]; in the experiment with ΔmenB) were more than 60 µM, 28.8 µM and 21.4 µM, respectively.
For `Cc1cc(-c2ccccc2O)n[nH]1` [Compound 2k, 2-(5-methyl-1H-pyrazol-3-yl)phenol], the concentration for half-maximal inhibition (IC50) (in experiment [1] (setting [3]); in experiment [2]; in the experiment on ΔmenB) was more than 60 µM each time. The “toxicity to fermenting / anaerobic S. aureus (in words)” value in experiment [2] is “nontoxic under all conditions”.
On to `c1ccc(-c2cc(-c3ccco3)[nH]n2)cc1` [Compound 1g, 5-(furan-2-yl)-3-phenyl-1H-pyrazole], for which, in the experiment with HssRS, the “HssRS activation in single point screen” value is “loss of HssRS activation compared to 1 and 1a”. The half-inhibitory concentration (IC50) (in experiment [1] (setting [3]); in experiment [2]; with ΔmenB) was more than 60 µM throughout.
Consider `COc1c(-c2cc(-c3ccco3)[nH]n2)ccc2ccccc12` [Compound 1c, 5-(furan-2-yl)-3-(1-methoxynaphthalen-2-yl)-1H-pyrazole], for which the “HssRS activation in single point screen” value in the experiment with HssRS is on record as “complete loss of activity”. Moreover, the IC50 (in experiment [1] (setting [3]); in experiment [2]; with ΔmenB) was more than 60 µM throughout. In experiment [2], the “toxicity to fermenting / anaerobic S. aureus (in words)” value was “eliminates toxicity”.
For `Oc1ccccc1-c1cc(C2CCCC2)[nH]n1` [Compound 2n, 2-(5-cyclopentyl-1H-pyrazol-3-yl)phenol], the IC50 is more than 60 µM in experiment [1] (setting [3]), 25.3 µM in experiment [2] and 29.7 µM in the experiment on ΔmenB. Further, the “toxicity to fermenting / anaerobic S. aureus (in words)” value in experiment [2] is given as “comparably toxic to 1”.
For `COc1ccccc1-c1cc(-c2ccccc2F)[nH]n1` [Compound 3b, 5-(2-fluorophenyl)-3-(2-methoxyphenyl)-1H-pyrazole], the concentration for half-maximal inhibition (IC50) (in experiment [1] (setting [3]); in experiment [2]; with ΔmenB) was more than 60 µM each time. The “toxicity to fermenting / anaerobic S. aureus (in words)” value in experiment [2] was “eliminates toxicity”.
For `COc1ccccc1-c1cc(-c2ccco2)[nH]n1` [Compound 1d, 5-(furan-2-yl)-3-(2-methoxyphenyl)-1H-pyrazole], in the experiment with HssRS, the “HssRS activation in single point screen” value is “loss of HssRS activation compared to 1 and 1a”. Further, the IC50 (in experiment [1] (setting [3]); in experiment [2]; with ΔmenB) was more than 60 µM each time.
`COc1ccc(-c2cc(-c3ccco3)[nH]n2)c(O)c1` [Compound 1b, 2-(5-(furan-2-yl)-1H-pyrazol-3-yl)-5-methoxyphenol]: in the experiment with HssRS, the “HssRS activation in single point screen” value is given as “modest loss of activity compared to 1”, the EC50 was 50.2 µM and the Efficacy came to 26.2 ± 6.7%. The EC50 with HssRS (read-out: pEC50 (converted)) was 50.1 µM. Besides, the half-inhibitory concentration (IC50) in experiment [1] (setting [3]) is more than 60 µM. In addition, in experiment [2], the half-maximal inhibitory concentration (IC50) is more than 60 µM and the “toxicity to fermenting / anaerobic S. aureus (in words)” value is “relatively nontoxic to fermenting S. aureus”. In addition, the half-maximal inhibitory concentration (IC50) in the experiment with ΔmenB was more than 60 µM.
Turning to `COc1ccc(C(=O)Nc2ccccc2-c2cc(-c3ccco3)[nH]n2)cc1` [Compound 1j, N-(2-(5-(furan-2-yl)-1H-pyrazol-3-yl)phenyl)-4-methoxybenzamide], the results for the half-maximal inhibitory concentration (IC50) (in experiment [1] (setting [3]); in experiment [2]; with ΔmenB) were more than 60 µM, 11.6 µM and 6.63 µM, respectively.
As for `Oc1ccccc1-c1cc(-c2cccnc2)[nH]n1` [Compound 2h, 2-(5-(pyridin-3-yl)-1H-pyrazol-3-yl)phenol], the IC50 (in experiment [1] (setting [3]); in experiment [2]; in the experiment with ΔmenB) was more than 60 µM each time.
`Oc1ccc(-c2cc(-c3ccco3)[nH]n2)cc1` [Compound 1f]: the “HssRS activation in single point screen” value with HssRS is “loss of HssRS activation compared to 1 and 1a”. For the same compound, the 50% inhibitory concentration (IC50) (in experiment [1] (setting [3]); in experiment [2]; in the experiment on ΔmenB) was more than 60 µM in each case.
Take `CS(=O)(=O)Nc1ccccc1-c1cc(-c2ccco2)[nH]n1` [Compound 1h, N-(2-(5-(furan-2-yl)-1H-pyrazol-3-yl)phenyl)methanesulfonamide]: the “HssRS activation in single point screen” value in the experiment with HssRS is “loss of HssRS activation compared to 1 and 1a”. Besides, the IC50 (in experiment [1] (setting [3]); in experiment [2]; with ΔmenB) was more than 60 µM each time. For the same compound, the “toxicity to fermenting / anaerobic S. aureus (in words)” value in experiment [2] is “nontoxic under fermentative conditions”.
As for `Oc1cccc(-c2cc(-c3ccco3)[nH]n2)c1` [Compound 1e, 3-(5-(furan-2-yl)-1H-pyrazol-3-yl)phenol], the “HssRS activation in single point screen” value in the experiment with HssRS is “loss of HssRS activation compared to 1 and 1a”. Also, the IC50 (in experiment [1] (setting [3]); in experiment [2]; in the experiment with ΔmenB) was more than 60 µM in each case.
Take `Oc1ccccc1-c1cc(-c2ccco2)[nH]n1` [Compound 1a, 2-(5-(furan-2-yl)-1H-pyrazol-3-yl)phenol]: in the experiment with HssRS, the “HssRS activation in single point screen” value is reported as “modest loss of activity compared to 1”, the EC50 was determined as 30.4 µM and the Efficacy stood at 28.2 ± 5.4%. For the same compound, in the experiment with HssRS (read-out: pEC50 (converted)), the EC50 is 32.4 µM. The IC50 in experiment [1] (9 h of growth, aerobic, read-out: IC50 Newman aerobic) is more than 60 µM. In addition, the “toxicity to fermenting / anaerobic S. aureus (in words)” value in experiment [2] is “relatively nontoxic to fermenting S. aureus”. In addition, the IC50 in the experiment with ΔmenB is 35.6 µM.
As to `Oc1ccccc1-c1cc(-c2ccoc2)[nH]n1` [Compound 2b], the IC50 (in experiment [1] (setting [3]); in experiment [2]; with ΔmenB) was more than 60 µM throughout.
For `CCc1cc(-c2ccccc2O)n[nH]1` [Compound 2l, 2-(5-ethyl-1H-pyrazol-3-yl)phenol], the IC50 (in experiment [1] (setting [3]); in experiment [2]; with ΔmenB) was more than 60 µM each time. In experiment [2], the “toxicity to fermenting / anaerobic S. aureus (in words)” value is given as “nontoxic under all conditions”.
As to `O=C(Nc1ccccc1-c1cc(-c2ccco2)[nH]n1)c1cccc2ccccc12` [Compound 1k, N-(2-(5-(furan-2-yl)-1H-pyrazol-3-yl)phenyl)-1-naphthamide], the half-maximal inhibitory concentration (IC50) is more than 60 µM in experiment [1] (setting [3]), 13.4 µM in experiment [2] and 5.89 µM with ΔmenB.
